According to ChEMBL document CHEMBL1201862, “PubChem BioAssay data set” (2004):
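Protocol summary: plate cells (96-well), add compound at 5 concentrations, incubate 48 h, interpolate endpoints linearly. Here, GI50 denotes the concentration required for 50% inhibition of growth.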 Active and inactive are the calls of the source. Cut-off read from the data, not from the text of the source: active = GI50 up to about 1.1 µM and inactive = higher.

Legend:
Experiment in all cases: NCI-60 cell line screen, 48 h
DLD-1 = tested on: DLD-1
DMS-114 = tested on: DMS-114
DMS-273 = tested on: DMS-273
HOP-18 = tested on: HOP-18
LXFL 529 = tested on: LXFL 529
RXF 631 = tested on: RXF 631
SNB-78 = tested on: SNB-78
XF498 = tested on: XF498

Measured: GI50

COc1cccc(NC(=O)CC(=O)N2N=C(N(CCC#N)c3ccccc3C)CC2c2ccccc2)c1 (stereo unspecified)
inactive: DLD-1 > 100 µM | DMS-114 > 100 µM | DMS-273 > 100 µM | HOP-18 > 100 µM | LXFL 529 > 100 µM | RXF 631 > 100 µM | SNB-78 > 100 µM

COc1ccc(C(=O)C(C(=O)C(=O)Nc2nc3ccc(OC)cc3s2)c2ccc(OC)cc2)cc1 (stereo unspecified)
inactive: DLD-1 > 100 µM | DMS-114 90.2 µM | DMS-273 > 100 µM | HOP-18 90.6 µM | LXFL 529 > 100 µM | RXF 631 > 100 µM | SNB-78 > 100 µM | XF498 > 100 µM

O=C(O)CNc1c2ccccc2[n+]([O-])c2ccccc12
inactive: DLD-1 87.3 µM | DMS-114 47.9 µM | DMS-273 81.8 µM | HOP-18 36.1 µM | LXFL 529 34.6 µM | RXF 631 > 100 µM | SNB-78 > 100 µM

N#C/C(=C\c1ccccc1O)C(N)=O
inactive: DLD-1 70.1 µM | DMS-114 44.6 µM | DMS-273 > 100 µM | LXFL 529 72.8 µM | RXF 631 > 100 µM | SNB-78 46 µM | XF498 28.1 µM

COc1ccc(C(=O)NCCN(C)C)c2nc3ccccc3nc12
inactive: DLD-1 4.23 µM | DMS-114 3.39 µM | DMS-273 4.6 µM | HOP-18 > 30.8 µM | LXFL 529 6.7 µM | RXF 631 9.12 µM | SNB-78 3.72 µM

N#CC(C(=O)CCCC(=O)Nc1ccc(Cl)cc1Cl)c1ccc(Cl)cc1 (stereo unspecified)
inactive: DLD-1 > 100 µM | DMS-273 > 100 µM | HOP-18 31.7 µM | LXFL 529 > 100 µM | RXF 631 > 100 µM | SNB-78 > 100 µM | XF498 > 100 µM

COC1(OC)C2(Cl)C(Cl)=C(Cl)C1(Cl)C1C=CC=CC12 (stereo unspecified)
inactive: DLD-1 67.5 µM | DMS-114 42.4 µM | DMS-273 60.8 µM | LXFL 529 > 100 µM | RXF 631 13.1 µM | SNB-78 > 100 µM | XF498 46.6 µM

CC(N)Cc1ccc(C(=O)Cl)cc1 (stereo unspecified)
inactive: DLD-1 > 100 µM | DMS-114 > 100 µM | LXFL 529 > 100 µM | RXF 631 > 100 µM | XF498 > 100 µM

CN(C(=O)C12C3C4C1C1C2C3C41C(=O)N(C)C(C)(C)C)C(C)(C)C (stereo unspecified)
inactive: DMS-114 > 50 µM | DMS-273 > 50 µM | LXFL 529 > 50 µM | RXF 631 > 50 µM | SNB-78 > 50 µM | XF498 > 50 µM

c1ccc2cc3[s+]snc3cc2c1
inactive: DLD-1 > 100 µM | DMS-273 > 100 µM | HOP-18 > 100 µM | LXFL 529 85.1 µM | RXF 631 > 100 µM | SNB-78 > 100 µM | XF498 > 100 µM

CCCCOCc1cc(CN2CCN(C)CC2)c(O)c2ncccc12
inactive: DLD-1 8.05 µM | DMS-114 6.38 µM | DMS-273 12.1 µM | HOP-18 5.35 µM | LXFL 529 11.9 µM | RXF 631 53.7 µM | SNB-78 31 µM | XF498 30.8 µM
